Data: patent US9999609B2, “Methods for treating or preventing fatigue” (SK Biopharmaceuticals Co., Ltd., priority 2009, dated 2018)

How the values were obtained:
Assay type in all cases: in vivo
[1] = tested on: male adult Sprague Dawley rats; assay: Sleep-wake organization (EEG/EOG/EMG) in rats after acute i.p. administration; conditions: for Duration Active wake / Duration Deep sleep / Duration Intemediate stage / Duration Light sleep / Duration Passive wake / Duration REM sleep / Latency ISWS / Latency REM sleep / Latency dSWS / Shifts: Shift from ISWS to AW / Shifts: Shift from ISWS to PW / Shifts: Shift from REMS to AW / Shifts: Shift from REMS to PW / Shifts: Shift from dSWS to AW / Shifts: Shift from dSWS to PW: rats, mean ± s.e.m of 8 rats; for Duration Active wake / Duration Deep sleep / Duration Intemediate stage / Duration Light sleep / Duration Passive wake / Duration REM sleep: 16 h recording
[2] = tested on: C57BL/6J, AKR/J and DBA/2J mice; assay: Sleep onset and vigilance states in three inbred mouse strains after IP injection
Description: At least 7 adult male mice of inbred strains C57BL/6J, AKR/J, and DBA/2J were recorded in 2 sessions of 72 continuous hours. The first 24 h in each session are considered as baseline followed the next day by the saline injection and the next day by 150 mg/kg of the test compound in the first session and 5 mg/kg d-amphetamine in the second session. The two sessions were separated by 7 days (wash-out period) and all injections were intraperitoneal (IP) and performed at light onset (9 am) in a volume of 5 ml/kg.

[3] = tested on: hypocretin cell ablated narcoleptic mice (prepororexin/ataxin-3 transgenic) and their littermate wild-type mice; assay: Sleep parameters (EEG/EMG polygraph) in narcoleptic and wild-type mice after oral dosing; conditions: for duration of continuous wakefulness: resting period (ZT 2), most wild-type and narcoleptic mice
Source text: The polygraph signal (EEG and EMG) was captured with SleepSign (Kissei Comtech), and the sleep stage was visually scored with 10 sec epoch for wakefulness, non-REM sleep and REM sleep. Scoring criteria are: Wakefulness is characterized by desynchronized low-amplitude, mixed frequency (>4 Hz) EEG and high EMG activity. Rhythmic alpha (8-9 Hz) wave (with high EMG activities) may also appear. Non-REM is characterized by synchronized, high-amplitude, low-frequency (0.25-4 Hz) with reduced EMG activity (compared to wakefulness). EEG activity in REM sleep is similar to that in wakefulness, with desynchronized, mixed frequency low amplitude waves. Rhythmic alpha (8-9 Hz) wave with reduced EMG activities may also appear. […] is reduced even further and in many cases, completely absent. Same muscle twitching may be apparent in the EMG trace during REM sleep.
Three drug doses of the test compound (50, 100 and 150 mg/kg PO) plus vehicle, were orally administered at ZT 2 (2 hours after light on) or ZT14 (2 hours after light off), and the effects on sleep were monitored for 6 hours after the drug administration (the sleep data was collected for 30 hours after the drug injection, and are available for further analysis). The doses for modafinil were 50 and 200 mg/kg PO (plus vehicle), and modafinil was also administered at ZT 2 and […]
If the polygraph signals of some mice were not sufficient to score the sleep stage with accuracy (especially bad EMG), data from these animals were excluded, and the minimum of 5 animals (except for the highest dose of the test compound in wild-type mice in dark period, n=4) were included for the data analysis and number of animals were indicated in the figures.
Effects of test compound and modafinil on the amount of wake, non-REM sleep, REM sleep (cumulative seconds), number of episodes for each sleep stage during 6 hours, and mean wake/sleep-bout lengths (seconds) were analyzed in each animal and the mean of each parameter was calculated in each genotype. The effects of compounds on wake and sleep amounts are useful to evaluate the wake promoting potency, and the number of episodes for each sloop stage and the mean wake/sleep bout length are parameters for evaluating the sleep fragmentation. Amphetamine and modafinil, two main wake-promoting compounds currently used for the treatment of EDS associated with various etiologies (narcolepsy, idiopathic hypersomnia and secondary EDS), are known to increase wake time and prolong wake bout length in normal and EDS conditions.
A comparison of the effects between hypocretin deficient and wild-type mice is very useful in determining the wake-promotion of the test compound is dependent on the availability of hypocretins, and if there is a possible change in the sensitivity of the receptive mechanisms of test compound in narcoleptic mice due to the hypocretin ligand deficiency.

[4] = tested on: adult human subjects with moderate or severe major depression without psychotic features; assay: Randomized double-blind placebo- and active-controlled 6-week study in major depression; conditions: for ABCD questionnaire items (of 51) with statistically significant superiority to placebo: post hoc analyses
Source text: This was a randomized, double-blind, parallel-group, active, and placebo-controlled, multicenter study conducted in the U.S. (23 centers) and Canada (4 centers). There were 2 phases: a pretreatment phase (screening/washout and a baseline visit) and a 6-week, double-blind treatment phase. Paroxetine, a positive control, was included to evaluate assay sensitivity. After washout (if needed) of prohibited substances, subjects were randomly assigned (1:1:1:1) to receive the test compound titrated to a target dose of 200 mg/day or 400 mg/day, matching placebo, or a fixed dose (20 mg/day) of paroxetine. Study drug was given twice daily for 6 weeks. Efficacy and safety were assessed weekly during the double-blind phase. Subjects completing the study underwent an Exit Interview (“Your Health and Well-Being”) and completed an Assessment of Benefits of Clinical-trial Drug-treatment (ABCD) questionnaire (U.S. sites only).

[5] = 3 mg/kg i.p., 16 hours recording
[6] = 30 mg/kg i.p., 16-h post-injection

## NC(=O)OC[C@H](N)Cc1ccccc1 [test compound, (R)-(beta-amino-benzenepropyl) carbamate]
[1]; [5]
  increase in total light sleep vs vehicle: +26%
  increased drive to wakefulness from deep sleep vs vehicle: +15%
  increased drive to wakefulness from light sleep vs vehicle: +46%
[1]; 10 mg/kg i.p.
  increase in shifts from REM sleep towards active wakefulness vs vehicle: +16%
  increase in total duration of light sleep vs vehicle: +24%
  Duration Active wake: 305.5 ± 15.1 min
  Duration Deep sleep: 104.0 ± 19.3 min
  Duration Intemediate stage: 5.2 ± 0.7 min
  Duration Light sleep: 366.6 ± 21.2 min
  Duration Passive wake: 73.1 ± 13.2 min
  Duration REM sleep: 102.3 ± 4.6 min
  Latency ISWS: 30.4 ± 7.9 min
  Latency REM sleep: 87.5 ± 14.5 min
  Latency dSWS: 127.2 ± 67.1 min
  Shifts: Shift from ISWS to AW: 204.5 ± 56.4 number
  Shifts: Shift from ISWS to PW: 84.4 ± 40.5 number
  Shifts: Shift from REMS to AW: 94.1 ± 24.0 number
  Shifts: Shift from REMS to PW: 8.9 ± 6.7 number
  Shifts: Shift from dSWS to AW: 4.2 ± 3.1 number
  Shifts: Shift from dSWS to PW: 12.5 ± 8.5 number
[1]; 30 mg/kg i.p.
  change in number of epochs of REM sleep: −24%
  change in number of epochs of active wakefulness: +19%
  change in number of epochs of light sleep: −23%
  change in number of epochs of passive wakefulness: −30%
  mean durations of sleep wake states: not modified
  onset of activity after administration: ~30 min
  Duration Active wake: 371.6 ± 7.7 min
  Duration Deep sleep: 214.9 ± 15.6 min
  Duration Intemediate stage: 4.0 ± 1.0 min
  Duration Light sleep: 235.8 ± 14.3 min
  Duration Passive wake: 57.3 ± 4.7 min
  Duration REM sleep: 72.9 ± 7.3 min
  Latency ISWS: 73.6 ± 25.7 min
  Latency REM sleep: 251.8 ± 32.0 min
  Latency dSWS: 174.6 ± 12.3 min
  Shifts: Shift from ISWS to AW: 221.9 ± 58.3 number
  Shifts: Shift from ISWS to PW: 74.2 ± 29.0 number
  Shifts: Shift from REMS to AW: 65.1 ± 21.8 number
  Shifts: Shift from REMS to PW: 4.1 ± 3.2 number
  Shifts: Shift from dSWS to AW: 8.7 ± 5.3 number
  Shifts: Shift from dSWS to PW: 17.6 ± 12.0 number
[1]; [6]
  change of total time spent in REM sleep vs vehicle: −25%
  change of total time spent in active wakefulness vs vehicle: +19%
  change of total time spent in light sleep vs vehicle: −20%
  change of total time spent in passive wakefulness vs vehicle: −29%
[1]; 30 mg/kg i.p., beginning of the administration
  overall profile of effects: psychostimulant-like properties
[1]; 30 mg/kg i.p., starting 3 hours after administration
  duration of rebound increase in deep sleep: about 7 hours
[1]; i.p.
  duration of central activity after injection: at least 4 hours
  time of peak in effect post administration: around 2 hours
[1]; 3 mg/kg i.p.
  Duration Active wake: 290.0 ± 11.2 min
  Duration Deep sleep: 125.0 ± 24.6 min
  Duration Intemediate stage: 2.9 ± 0.7 min
  Duration Light sleep: 374.7 ± 16.6 min
  Duration Passive wake: 79.5 ± 10.7 min
  Duration REM sleep: 84.0 ± 5.4 min
  Latency ISWS: 15.6 ± 4.1 min
  Latency REM sleep: 66.0 ± 11.8 min
  Latency dSWS: 42.0 ± 8.5 min
  Shifts: Shift from ISWS to AW: 217.8 ± 55.5 number
  Shifts: Shift from ISWS to PW: 78.1 ± 35.8 number
  Shifts: Shift from REMS to AW: 78.0 ± 21.6 number
  Shifts: Shift from REMS to PW: 3.7 ± 3.0 number
  Shifts: Shift from dSWS to AW: 9.7 ± 6.6 number
  Shifts: Shift from dSWS to PW: 6.6 ± 5.9 number
[2]; 150 mg/kg IP
  genotype effect on wake time referenced to sleep latency after saline: no genotype effect
[2]; 150 mg/kg IP at light onset, three inbred strains
  duration of induced continuous wakefulness (sleep latency): up to 4.5 hours
[2]; 150 mg/kg IP, hourly wakefulness over 72 h recordings
  wakefulness duration compared with d-amphetamine 5 mg/kg: significantly longer wakefulness duration than amphetamine
[3]; 50 mg/kg PO
  duration of continuous wakefulness: up to 3 hours
[3]; 100 mg/kg PO
  duration of continuous wakefulness: ≤ 4 h
[3]; 150 mg/kg PO
  duration of continuous wakefulness: ≤ 5 h
[3]; 50-150 mg/kg PO, wild-type and narcoleptic mice
  bouts of wakefulness: significantly increased bouts of wakefulness
[3]; active (dark) period, ZT14, PO
  effect on wakefulness: dose-dependently increased wakefulness
[3]; active period, 100 and 150 mg/kg PO
  wake amounts in narcoleptic mice relative to wild-type mice: brought up to the levels of wild-type mice
[3]; active period, PO
  amounts of non-REM and REM sleep in narcoleptic mice relative to wild-type mice: brought down to the levels of wild-type mice
[3]; resting period, 50, 100, 150 mg/kg PO
  Non-REM and REM sleep during the period of continuous wakefulness: completely suppressed
[3]; resting period, 50-150 mg/kg PO
  EEG patterns after administration: no abnormal EEG patterns
[3]; resting period, PO
  effect on REM sleep: potently reduced REM sleep
[3]; resting period, wild-type and hypocretin-deficient narcoleptic mice, PO
  wake-promoting effects: Very potent wake-promoting effects
[4]; 200 mg
  ABCD questionnaire items (of 51) with statistically significant superiority to placebo: 14 items
[4]; 400 mg
  ABCD questionnaire items (of 51) with statistically significant superiority to placebo: 8 items
[4]; one or both doses (200 and 400 mg/day), 6 weeks
  secondary efficacy variables of mood and well-being: statistically significantly greater efficacy than placebo
[4]; target dose 200 mg/day, 6 weeks
  Insomnia, treatment-emergent adverse event incidence: 24%
[4]; target dose 400 mg/day, 6 weeks
  Insomnia, treatment-emergent adverse event incidence: 35%
